Consider 70 molecules from ChEMBL document CHEMBL3507680, “University of Dundee, Gates Library screen for HepG2 cell viability”.

A short description of the data set: Human HepG2 cell viability assay in 384 well format. The format is toxicity, cell-based. Details: dose 125 nL, time 70.5 hour; concentration not given beside the values. Particulars: HepG2 cells, read-out: Inhibition.
As for `O=c1[nH]nc2n1CCN(S(=O)(=O)c1ccccc1Cl)C2`, the cytotoxicity at 70.5 h is -7.03%.

Consider `Cc1cc(C2CCCN(C(=O)c3c(C)noc3C)C2)n[nH]1` (stereo not given), for which the cytotoxicity at 70.5 h is -5.28%.

`Cc1ccc(C(NCC(=O)N2CCNC(=O)C2)C(F)(F)F)cc1` (stereo not given): the cytotoxicity at 70.5 h was -113%.

`CC(C)C(=O)Nc1cccc(OCC(=O)NCc2ccccc2F)c1`: the cytotoxicity at 70.5 h is -5.29%.

As for `CNC(=O)C(C)(C)N1CCC[C@H]1C(=O)NCCN1CCCC1`, the cytotoxicity at 70.5 h is 5.17%.

Turning to `O=C(NCC1CCN(CCc2ccccc2)C1)NCC1(O)CCC1` (stereo not given), the cytotoxicity at 70.5 h is -3.77%.

Turning to `CCCS(=O)(=O)N1CCCC(c2cccc(C(=O)O)c2)C1` (stereo not given), the cytotoxicity at 70.5 h is -9.39%.

On to `COCCN(C/C=C/c1ccccc1)Cc1ccccn1`, for which the cytotoxicity at 70.5 h worked out at 6.25%.

As to `CC(C)n1cnnc1CN(C)Cc1cnc(-c2cccs2)nc1`, the cytotoxicity at 70.5 h is 0.122%.

`Cc1nc(C)n(CCNS(=O)(=O)NCc2ccccc2)n1`: the cytotoxicity at 70.5 h is -15.5%.

Take `O=C(Cc1ccccc1O)Nc1ccc(N2CCCC2)nc1`: the cytotoxicity at 70.5 h is -10.3%.

As for `Cc1nc(C)c(CN2CCOC[C@H](Oc3cnccn3)C2)s1`, the cytotoxicity at 70.5 h is -7.51%.

Turning to `CCS(=O)(=O)N1CC[C@H]2OCC[C@@]2(c2nnc(C)o2)C1`, the cytotoxicity at 70.5 h was -7.55%.

As for `COCCN(Cc1ccc(OC)nc1)Cc1cccs1`, the cytotoxicity at 70.5 h stood at 29.6%.

Turning to `O=C(NC[C@H]1CCCN1)c1cc(COc2cccc(C(F)(F)F)c2)[nH]n1`, the cytotoxicity at 70.5 h was -2.98%.

As for `CN1CCO[C@@H]2CN(S(=O)(=O)c3ccc(F)cc3)CC[C@@H]2C1`, the cytotoxicity at 70.5 h is -1.86%.

Regarding `COc1cccc(-c2noc(C3CCN(Cc4ccccc4C)C3)n2)c1` (stereo not given), the cytotoxicity at 70.5 h came out at 13.9%.

Turning to `CCOCC1CN(C(=O)c2ccnnc2)Cc2cnn(CC)c21` (stereo not given), the cytotoxicity at 70.5 h is -6.52%.

Consider `CNC(=O)[C@@H]1COC[C@H]2CN(C(=O)c3cccc(OC)c3)C[C@H]21`, for which the cytotoxicity at 70.5 h was found to be 9.55%.

Take `COCC1CCN(S(=O)(=O)N2C[C@H](c3ccccc3)[C@@H](N)C2)CC1`: the cytotoxicity at 70.5 h is -1.87%.

With `CCC1CN(C(=O)c2ccc(=O)[nH]c2)CCC(=O)N1Cc1ccccc1` (stereo not given), the cytotoxicity at 70.5 h is -2.4%.

Take `CC(C)CN1C(=O)CO[C@@H]2CN(C(=O)[C@H]3CCCO3)C[C@H]21`: the cytotoxicity at 70.5 h is -1.2%.

For the molecule `O=C1CC[C@H]2[C@H](CCN2c2ccccn2)N1CC1CCOCC1`, the cytotoxicity at 70.5 h is -9.84%.

Consider `COc1ccc(CNC(=O)c2nn(C)c3c2CS(=O)(=O)CC3)cc1OC`, for which the cytotoxicity at 70.5 h came to 1.56%.

Turning to `COCCC1(C(=O)O)CCCN(Cc2cc3c(cc2Cl)OCO3)C1` (stereo not given), the cytotoxicity at 70.5 h was -5.22%.

In the case of `CN(C)C(=O)COCc1cncc2c1CCN(Cc1ccccn1)C2`, the cytotoxicity at 70.5 h was -7.2%.

As to `CC(NC(=O)NCCCn1cccn1)c1ccc2c(c1)OCCCO2` (stereo not given), the cytotoxicity at 70.5 h amounted to 13.2%.

As for `CN(C)C(=O)Cc1nc(CN2CCCC2Cn2cncn2)cs1` (stereo not given), the cytotoxicity at 70.5 h is -10.9%.

For the molecule `O=c1ccc2c(n1Cc1cccnc1)CCC(NCc1cccnc1)C2` (stereo not given), the cytotoxicity at 70.5 h is -0.912%.

In the case of `CCOc1cc(C)nc(N2CCN(C(=O)c3csnn3)CC2)n1`, the cytotoxicity at 70.5 h was -12.5%.

For the molecule `CCOC(=O)c1cnn(C2CCN(C(=O)CCC(C)C)CC2)c1N`, the cytotoxicity at 70.5 h amounted to 0.0774%.

With `Cc1nc(NC(=O)CCN2C(=O)c3ccccc3NC2C(C)C)sc1C` (stereo not given), the cytotoxicity at 70.5 h is -0.712%.

As for `O=C1CCCN1CC1CN(C(=O)N2CCOCC2)Cc2nccn2C1` (stereo not given), the cytotoxicity at 70.5 h is -2.04%.

For the molecule `CC(O)CN1CCC(CNCc2cn(-c3ccccc3)nn2)CC1` (stereo not given), the cytotoxicity at 70.5 h is -9.21%.

For `CC(=O)N1CC[C@H]2OCC[C@@H](C(=O)Nc3cccnc3C)[C@H]2C1`, the cytotoxicity at 70.5 h is -3.55%.

For the molecule `Cc1ccccc1S(=O)(=O)N[C@@H]1CC[C@@H](N2CCNC(=O)C2)[C@@H]1O`, the cytotoxicity at 70.5 h is -4.42%.

For `COCC(=O)N1CC[C@@H](OCC2CC2)[C@@H]1Cc1cccnc1`, the cytotoxicity at 70.5 h is 0.787%.

For `COCCc1noc(CN2CCCc3cccc(OC)c32)n1`, the cytotoxicity at 70.5 h was -4.64%.

As to `Cc1nc(NS(=O)(=O)c2ccc(F)c(Br)c2)no1`, the cytotoxicity at 70.5 h was -2.96%.

On to `CCc1ocnc1C(=O)N1CCOCC1CC(=O)c1ccccc1` (stereo not given), for which the cytotoxicity at 70.5 h is -7.1%.

On to `CN(Cc1nnc(-c2cccs2)o1)C(C(N)=O)c1cccc(F)c1` (stereo not given), for which the cytotoxicity at 70.5 h is -22%.

In the case of `Cn1ncc(N2CCOCC2)c(Cl)c1=O`, the cytotoxicity at 70.5 h is -7.54%.

Take `C[C@H](NS(C)(=O)=O)C(=O)NCc1cc(-c2ccco2)n[nH]1`: the cytotoxicity at 70.5 h is -12.9%.

Take `Clc1ccc(N2CCN(CCCN3CCCCC3)CC2)nc1`: the cytotoxicity at 70.5 h came out at 7.35%.

Take `Cc1cccc(NC(=O)CN(C)C(=O)c2scnc2C)n1`: the cytotoxicity at 70.5 h came out at 0.715%.

On to `c1nc2c(c(N3CCCC(Cn4cncn4)C3)n1)CCC2` (stereo not given), for which the cytotoxicity at 70.5 h was -7.36%.

In the case of `COC(=O)CNC(=O)c1cn(-c2ccccn2)c(=O)c2ccccc12`, the cytotoxicity at 70.5 h is -9.1%.

With `c1cc2c(cc1Cn1cc(C3CCCNC3)nn1)CCCO2` (stereo not given), the cytotoxicity at 70.5 h was -15.2%.

For the molecule `O=C(NCC1CC1)C1CSCN1S(=O)(=O)c1ccccc1F` (stereo not given), the cytotoxicity at 70.5 h amounted to 4.99%.

Consider `CO[C@H]1CCN(C(=O)Cc2ccccn2)[C@H]1Cc1ccncc1`, for which the cytotoxicity at 70.5 h was -7.06%.

Take `O=C(c1ccccc1F)N1CC(c2nc(C3CC3)no2)C1`: the cytotoxicity at 70.5 h was -11.5%.

Turning to `CC(C)(CO)Nc1cc(-c2cn[nH]c2)ncn1`, the cytotoxicity at 70.5 h is -2.91%.

On to `Cn1nc(CNC(=O)C2CCCCC2)cc1C1CC1`, for which the cytotoxicity at 70.5 h was found to be 33%.

Turning to `Cc1ccccc1CNc1ccc(S(N)(=O)=O)c(C(F)(F)F)c1`, the cytotoxicity at 70.5 h was 4.82%.

In the case of `Cn1cccc1C(=O)N1CCc2ncnc(N3CCOCC3)c2CC1`, the cytotoxicity at 70.5 h is -9.14%.

Regarding `CC1CN(C)CCN1C(=O)c1cccn1Cc1ccncc1` (stereo not given), the cytotoxicity at 70.5 h was -0.0265%.

As for `COCC(=O)N1Cc2nc3c(C)c(-c4cccs4)nn3c(O)c2C1`, the cytotoxicity at 70.5 h is -0.72%.

With `COCCn1nc(C(=O)N2CCN(C)CC2C)ccc1=O` (stereo not given), the cytotoxicity at 70.5 h is -4.08%.

Take `CS(=O)(=O)NCc1cc(-c2cc(F)cc(F)c2)nc(N2CCOCC2)n1`: the cytotoxicity at 70.5 h was -13.9%.

As for `CNC(=O)N1CCC2(CC1)CN(C)c1ccc(F)cc12`, the cytotoxicity at 70.5 h amounted to 2.16%.

On to `O=c1[nH]c2nc(N3CCSCC3)ncc2c(=O)n1-c1ccc(F)cc1`, for which the cytotoxicity at 70.5 h is -16.9%.

As for `Brc1ccc(C2(CNCc3cc[nH]c3)CCOCC2)cc1`, the cytotoxicity at 70.5 h was -0.56%.

Turning to `CCCOCC1CCN(C(=O)c2cnc(C)nc2O)C1` (stereo not given), the cytotoxicity at 70.5 h was -2.13%.

As to `Cn1nccc1C(=O)NCCN1CCC(O)(c2ccc(F)cc2)CC1`, the cytotoxicity at 70.5 h came out at 7.28%.

As for `CC(C)C(=O)N1CC[C@H]2N(C)CC[C@@]2(C(=O)N2CCOCC2)CC1`, the cytotoxicity at 70.5 h is 2.86%.

Take `CCCc1ccc(CN2CCC3(CCC(=O)N(CCCOC)C3)CC2)o1`: the cytotoxicity at 70.5 h is 20.6%.

In the case of `Cc1nn(-c2ncnc3[nH]cnc23)c2c1C(C(C)C)CC(=O)N2` (stereo not given), the cytotoxicity at 70.5 h was -1.6%.

For the molecule `COc1ncccc1CNC(=O)NCCNC(=O)c1ccco1`, the cytotoxicity at 70.5 h turned out to be 0.312%.

Consider `CN(Cc1cccnc1)C1CC2(CCN(C(=O)c3cscn3)CC2)C1`, for which the cytotoxicity at 70.5 h came to 8.2%.

`CCOC(=O)CCNC(=O)N1CCOC(Cc2cccc(OC)c2)C1` (stereo not given): the cytotoxicity at 70.5 h was -9.71%.
